Laboratory results published in US9937115B2, “Oral care compositions with improved flavor” (priority 2010, dated 2018).

Columns and labels:
[1] = Panelists brushed with dentifrice Formula Ia-Ie and rated reduction in soapy off taste and flavor character; assay type: in vivo; conditions: molecule incorporated in toothpaste Formula Ia-Ie; panelists n=4
Excerpt: Then, these materials were further screened in Test Formula Ia-Ie, by incorporating at the indicated level. After the toothpaste was made, a small group of panelists (n=4) brushed with the dentifrice and rated the reduction in soapy off taste and the flavor character the compound provided.

TRPA1 receptor [2] = target: T1, TRPA1 receptor (Homo sapiens, UniProt O75762); assay: cell-based; design: activation: dose or concentration left out as unconfirmed; conditions: for activation at 100 µM / activation: HEK293; for activation at 100 µM / activation / TRPA1 Direct addition: percentage of the control (allyl isothiocyanate) calcium count, material dissolved in DMSO at 100 micromolar, HEK cells with TRPA1; for activation at 100 µM / TRPA1 Direct addition: direct addition; for activation at 100 µM: read-out: TRPA1 Direct addition; for activation: pre-incubation, read-out: TRPA1 Pre-incubation; for % of AITC Receptor Activation (from Data in Table II): restated in Table III from Table II;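 for TRPA1 Pre-incubation: values above 100 mean more active than the control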
T1 construct: expressed in transfected cells; host or cells: HEK cell line
T1 sequence (O75762 whole entry): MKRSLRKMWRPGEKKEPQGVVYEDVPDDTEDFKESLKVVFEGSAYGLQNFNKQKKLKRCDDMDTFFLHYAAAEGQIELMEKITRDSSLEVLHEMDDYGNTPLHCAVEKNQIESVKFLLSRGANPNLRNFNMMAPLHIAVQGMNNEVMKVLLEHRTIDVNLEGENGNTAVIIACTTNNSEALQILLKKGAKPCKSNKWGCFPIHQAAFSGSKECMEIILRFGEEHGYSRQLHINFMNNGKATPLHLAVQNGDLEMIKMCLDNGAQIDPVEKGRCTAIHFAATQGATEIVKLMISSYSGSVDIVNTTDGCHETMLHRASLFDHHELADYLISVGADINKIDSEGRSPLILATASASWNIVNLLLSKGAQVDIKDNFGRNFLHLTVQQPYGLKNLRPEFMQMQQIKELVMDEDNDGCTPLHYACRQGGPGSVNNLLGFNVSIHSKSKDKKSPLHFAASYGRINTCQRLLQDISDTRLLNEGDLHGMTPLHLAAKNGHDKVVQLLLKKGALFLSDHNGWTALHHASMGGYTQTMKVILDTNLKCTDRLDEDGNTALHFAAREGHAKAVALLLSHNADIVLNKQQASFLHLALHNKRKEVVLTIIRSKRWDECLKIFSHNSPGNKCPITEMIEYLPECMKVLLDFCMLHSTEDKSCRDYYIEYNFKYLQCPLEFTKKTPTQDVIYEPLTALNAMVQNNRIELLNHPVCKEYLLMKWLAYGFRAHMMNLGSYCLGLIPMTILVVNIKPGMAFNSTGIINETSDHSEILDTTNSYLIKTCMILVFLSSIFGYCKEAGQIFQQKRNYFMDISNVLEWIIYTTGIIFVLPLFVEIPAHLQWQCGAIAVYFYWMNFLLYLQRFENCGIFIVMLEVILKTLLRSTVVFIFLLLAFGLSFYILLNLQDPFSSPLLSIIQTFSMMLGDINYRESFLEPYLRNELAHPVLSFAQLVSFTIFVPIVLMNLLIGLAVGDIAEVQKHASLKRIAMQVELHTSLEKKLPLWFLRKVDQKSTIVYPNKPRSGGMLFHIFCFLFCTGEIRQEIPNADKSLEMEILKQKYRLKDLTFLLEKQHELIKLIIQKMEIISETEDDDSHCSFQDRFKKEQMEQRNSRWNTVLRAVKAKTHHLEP
How it was run: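 HEK cells expressing TRPA1 were treated with test compounds dissolved in DMSO at 100 micromolar, with allyl isothiocyanate as positive control. Agonism was read on a FLIPR as calcium-dye fluorescence counts above background. A TRPA1 activator was defined as giving at least 1000 counts above background at 1 mM.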

TRPA1 receptor [3] = target: T1, TRPA1 receptor; assay type: cell-based; conditions: percentage of the control (allyl isothiocyanate) calcium count, material dissolved in DMSO at 100 micromolar, HEK cells with TRPA1
[4] = concentration where the cooling effect could be clearly recognized; cited from earlier work

| Molecule | TRPA1 Direct addition (TRPA1 receptor [2]) | TRPA1 Pre-incubation (TRPA1 receptor [3]) | further results |
| --- | --- | --- | --- |
| CCOc1cc(C=O)ccc1OC(=O)C(C)C [Ethyl vanillin isobutyrate] | – | – | Qualitative Team Evaluations (n = 4) [1]: Great reduction in bitter taste with no aftertaste. Slight vanilla character. Similar to vanillin isobutyrate |
| O=C(c1ccccc1)c1ccccc1 [Benzophenone] | – | – | activation at 100 µM (TRPA1 receptor [2]): 138%; activation (TRPA1 receptor [2]): 0%; % of AITC Receptor Activation (from Data in Table II) (TRPA1 receptor [2]): 138%; Qualitative Team Evaluations (n = 4) [1]: No observable effect |
| COc1ccc(C(C)=O)cc1 [Acetanisole] | 0.15% | 83.69% | – |
| C=C(C)C1CC=C(C)C(OC(=O)CC)C1 (stereo not shown) [Carvyl Propionate] | −0.57% | 105.07% | – |
| CC(C)[C@@H]1CC[C@@H](C)C[C@H]1O [L-menthol] | – | – | cooling threshold [4]: about 800 ppb |
| 2-phenyl propyl tetrahydrofuran | −0.15% | 108.49% | – |
| CC1CCC(C(C)(C)S)C(=O)C1 (stereo not shown) [P-Mentha-8-Thiol-3-one] | 46.29% | 73.82% | – |
| CC(=O)O[C@@H]1C[C@H](C)CC[C@H]1C(C)C [Laevo Menthyl Acetate] | −9.39% | 87.91% | – |
| CC1=C(/C=C/C(C)O)C(C)(C)CCC1 (stereo not drawn) [Beta-ionol] | −0.01% | 114.23% | – |
| CC(=O)OC1C2(C)CCC(C2)C1(C)C (stereo not shown) [Fenchyl Acetate] | −0.1% | 59.08% | – |
| 4-Ethylguaiacol | 55.61% | 53.53% | – |
| C=CC(C)(O)CCC=C(C)CC (mixture of isomers) [Ethyl Linalool] | −0.1% | 63.35% | – |
| COC(=O)CCCc1ccccc1 [Methyl 4-Phenyl butyrate] | −0.22% | 98.83% | – |
| CCCC/C=C/C=C/C=O [trans,trans,-2,4-Nonadienal] | 112.15% | −4.24% | – |
| C=C(C)CCCC(C)CCOC(C)=O (stereo not shown) [Rhodinyl Acetate] | −17.14% | 66.4% | – |
| C=C(C)C1CC=C(C)C(OC(C)=O)C1 (stereo not shown) [carvyl acetate] | −0.25% | 117.9% | – |
| CCC1OC(C)=C(O)C1=O (stereo not shown) [2-Ethyl-4-Hydroxy-5-Methyl-3(2) Furanone] | −1.06% | 78.56% | – |
| Iso Jasmone | 11.48% | 58.16% | – |
| CCOC(=O)c1ccccc1N [Ethyl Anthrailate] | 39.71% | 61.95% | – |
| Cc1ccc(C=O)c(O)c1 [2_Hydroxy-4-Methyl Benzaldehyde] | 0.4% | 68.24% | – |
| Oc1cc(Cl)ccc1Oc1ccc(Cl)cc1Cl [Triclosan, reference compound] | – | – | activation at 100 µM (TRPA1 receptor [2]): 196%; activation (TRPA1 receptor [2]): -0.05%; % of AITC Receptor Activation (from Data in Table II) (TRPA1 receptor [2]): 277%; Qualitative Team Evaluations (n = 4) [1]: Shifted off-taste from soapy to bitter after 10 minutes |
| CCC(C)/C=C(\C=O)c1ccccc1 (stereo not shown) [4-Methyl-2-phenyl-2-hexenal, 4-Methyl-2-phenyl-2-hexenal] | – | – | % of AITC Receptor Activation (from Data in Table II) (TRPA1 receptor [2]): 132%; Qualitative Team Evaluations (n = 4) [1]: Reduces the bitterness from alkyl phosphates, but it has a bitter character on its own |
| CC(C)[C@@H]1CC[C@@H](C)C[C@@H]1O [Material 1-neomenthol, 1-neomenthol] | – | – | cooling threshold [4]: about 3,000 ppb |
| CC(=O)/C=C/C1C(C)=CCCC1(C)C (stereo not drawn) [Alpha-Ionone] | −0.9% | 111.19% | – |
| CCCC1CCC(=O)O1 (stereo not shown) [Gamma Heptalactone] | 1.18% | 51.03% | – |

| Molecule | TRPA1 Direct addition (TRPA1 receptor [2]) | TRPA1 Pre-incubation (TRPA1 receptor [3]) | further results |
| --- | --- | --- | --- |
| CCc1nc(C)cs1 [2-Ethyl-4-Methythiazole] | −1.38% | 62.39% | – |
| Phellandrene | 1.65% | 52.15% | – |
| C/C=C/C(=O)C1C(C)C=CCC1(C)C (stereo not shown) [delta-damascone] | 0.74% | 138.93% | – |
| C/C=C/c1ccc(OCC)c(OC)c1 [ethyl isoeugenol] | −0.14% | 111.43% | – |
| CC1C2CC(CC2C2CCCC(O)C2)C1(C)C (stereo not shown) [Sandela] | 25.65% | 94.17% | – |
| O=C(O)C(O)C(O)C(=O)O [L-Tataric Acid] | −2.77% | 79% | – |
| CC(C)[C@@H]1CC[C@@H](C)C[C@@H]1O [d-neomenthol] | – | – | cooling threshold [4]: about 25,000 ppb |
| CCOC(=O)/C=C/c1ccccc1 [Ethyl Cinnemate] | 0.45% | 70.82% | – |
| CC/C=C\CCO [Hexen-1-ol] | 0.06% | 80.84% | – |
| COc1cc(C=O)ccc1OC(=O)C(C)C [Vanillin Isobutyrate] | – | – | activation at 100 µM (TRPA1 receptor [2]): 118%; activation (TRPA1 receptor [2]): -0.11%; % of AITC Receptor Activation (from Data in Table II) (TRPA1 receptor [2]): 118%; Qualitative Team Evaluations (n = 4) [1]: Great reduction in bitter taste with no aftertaste. Slight vanilla character. |
| CCCCCCCCCCCC=O [Lauric Aldehyde] | 19.05% | 85.96% | – |
| CCCC(=O)OC(C)c1ccccc1 (stereo not shown) [methyl benzyl butyrate] | −0.34% | 116.22% | – |
| CC1=C(CCC(C)O)C(C)(C)CCC1 (stereo not drawn) [Dihydro-beta-ionol] | −0.33% | 97.15% | – |
| C=CCCCCCCCCC=O [Undecylenic Aldehyde] | −14.32% | 52.14% | – |
| CCCCOC(=O)C(C)OC(=O)CCC (stereo not shown) [Butyl Butyryllactate] | −1.54% | 39.69% | – |
| CCC(C)(O)CCCC(C)C (stereo not shown) [Tetrahydrolinalool] | −17.09% | 70.8% | – |
| CCCc1ccc(O)c(OC)c1 [Dihydroeugenol] | 0.07% | 103.71% | – |
| CC(=O)O[C@@H]1C[C@H](C)CC[C@H]1C(C)C (racemic) [DL-Menthyl Acetate] | −16.09% | 43.32% | – |
| C/C=C/c1ccc(OC(=O)Cc2ccccc2)c(OC)c1 [Iso-eugenyl phenylacetate] | 29.74% | 42.19% | – |
| CC(=O)CCC1C(C)=CCCC1(C)C (stereo not drawn) [Dihydro-alpha-ionone] | 0.11% | 108.18% | – |
| C/C=C\C(=O)C1C(C)=CCCC1(C)C (stereo not drawn) [Alpha-Damascone] | −2.88% | 96.58% | – |
| CC(C)=CCCC(C)CCO (stereo not shown) [Cironellol] | −1.03% | 51.22% | – |
| C=CCCC(=O)/C=C/C1C(C)=CCCC1(C)C (stereo not drawn) [Allyl Alpha-Ionone] | 0.55% | 64.99% | – |
| CCOC(=O)CSC [Ethyl Methylthio Acetate] | −0.06% | 55.69% | – |
